In ChEMBL document CHEMBL1201862, “PubChem BioAssay data set” (2004):
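Results reflect a 48-hour exposure of cells in 96-well plates to compound at five concentrations. GI50 marks 50% less growth.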 The source made the active and inactive calls. No stated cut-off is given here; in the data, active = GI50 up to about 1.1 µM and inactive = higher.

Key:
Assay in all cases: growth of human tumour cells (NCI), 48 h
786-0 = test system: 786-0
A498 = test system: A498
A549 = test system: A549
ACHN = test system: ACHN
BT-549 = test system: BT-549
CAKI-1 = test system: CAKI-1
CCRF-CEM = test system: CCRF-CEM
COLO 205 = test system: COLO 205
DU-145 = test system: DU-145
EKVX = test system: EKVX
HCC 2998 = test system: HCC 2998
HCT-116 = test system: HCT-116
HCT-15 = test system: HCT-15
HL-60 = test system: HL-60
HOP-62 = test system: HOP-62
HOP-92 = test system: HOP-92
HT-29 = test system: HT-29
Hs-578T = test system: Hs-578T
K562 = test system: K562
KM12 = test system: KM12
LOX IMVI = test system: LOX IMVI
M14 = test system: M14
MCF7 = test system: MCF7
MDA-MB-231 = test system: MDA-MB-231
MDA-MB-435 = test system: MDA-MB-435
MDA-N = test system: MDA-N
MOLT-4 = test system: MOLT-4
Malme-3M = test system: Malme-3M
NCI-H226 = test system: NCI-H226
NCI-H23 = test system: NCI-H23
NCI-H460 = test system: NCI-H460
NCI-H522 = test system: NCI-H522
NCI/ADR-RES = test system: NCI/ADR-RES
OVCAR-3 = test system: OVCAR-3
OVCAR-4 = test system: OVCAR-4
OVCAR-5 = test system: OVCAR-5
OVCAR-8 = test system: OVCAR-8
PC-3 = test system: PC-3
RPMI-8226 = test system: RPMI-8226
RXF 393 = test system: RXF 393
SF-268 = test system: SF-268
SF-295 = test system: SF-295
SF-539 = test system: SF-539
SK-MEL-28 = test system: SK-MEL-28
SK-MEL-2 = test system: SK-MEL-2
SK-MEL-5 = test system: SK-MEL-5
SK-OV-3 = test system: SK-OV-3
SN12C = test system: SN12C
SNB-19 = test system: SNB-19
SNB-75 = test system: SNB-75
SR = test system: SR
SW-620 = test system: SW-620
T47D = test system: T47D
TK-10 = test system: TK-10
U-251 = test system: U-251
UACC-257 = test system: UACC-257
UACC-62 = test system: UACC-62
UO-31 = test system: UO-31
DLD-1 = test system: DLD-1
DMS-114 = test system: DMS-114
IGROV-1 = test system: IGROV-1
KM-20L2 = test system: KM-20L2
LXFL 529 = test system: LXFL 529
M19-MEL = test system: M19-MEL

c1ccc(CSc2nnc3c4ccccc4c4ccccc4c3n2)cc1
GI50 (786-0): 34.8 µM (inactive)
GI50 (A498): > 64.1 µM (inactive)
GI50 (A549): > 89.3 µM (inactive)
GI50 (ACHN): 61 µM (inactive)
GI50 (BT-549): 50 µM (inactive)
GI50 (CAKI-1): 78.9 µM (inactive)
GI50 (CCRF-CEM): 27.7 µM (inactive)
GI50 (COLO 205): > 100 µM (inactive)
GI50 (DU-145): > 82.2 µM (inactive)
GI50 (EKVX): 27.2 µM (inactive)
GI50 (HCC 2998): 51.1 µM (inactive)
GI50 (HCT-116): > 82.4 µM (inactive)
GI50 (HCT-15): > 100 µM
GI50 (HL-60): > 36.2 µM (inactive)
GI50 (HOP-62): 24.8 µM (inactive)
GI50 (HOP-92): 21.2 µM (inactive)
GI50 (HT-29): > 100 µM (inactive)
GI50 (Hs-578T): 36.2 µM (inactive)
GI50 (K562): 14.8 µM (inactive)
GI50 (KM12): > 100 µM (inactive)
GI50 (LOX IMVI): 62.7 µM (inactive)
GI50 (M14): > 100 µM (inactive)
GI50 (MCF7): 29.1 µM (inactive)
GI50 (MDA-MB-231): 35.2 µM (inactive)
GI50 (MDA-MB-435): 58.1 µM (inactive)
GI50 (MDA-N): 56.1 µM (inactive)
GI50 (MOLT-4): 39.1 µM (inactive)
GI50 (Malme-3M): 86.1 µM (inactive)
GI50 (NCI-H226): 45.6 µM (inactive)
GI50 (NCI-H23): 48.2 µM (inactive)
GI50 (NCI-H460): > 88.3 µM (inactive)
GI50 (NCI-H522): 33.2 µM (inactive)
GI50 (NCI/ADR-RES): 60.5 µM (inactive)
GI50 (OVCAR-3): 21.7 µM (inactive)
GI50 (OVCAR-4): 48.1 µM (inactive)
GI50 (OVCAR-5): > 100 µM (inactive)
GI50 (OVCAR-8): 35.5 µM (inactive)
GI50 (PC-3): 64.9 µM (inactive)
GI50 (RPMI-8226): 48 µM (inactive)
GI50 (RXF 393): > 52.1 µM (inactive)
GI50 (SF-268): 19.1 µM (inactive)
GI50 (SF-295): 23.2 µM (inactive)
GI50 (SF-539): 31.4 µM (inactive)
GI50 (SK-MEL-28): > 100 µM (inactive)
GI50 (SK-MEL-2): 36.6 µM (inactive)
GI50 (SK-MEL-5): > 100 µM (inactive)
GI50 (SK-OV-3): 17.7 µM (inactive)
GI50 (SN12C): > 93.8 µM (inactive)
GI50 (SNB-19): 33.2 µM (inactive)
GI50 (SNB-75): 8.73 µM (inactive)
GI50 (SR): 30.2 µM (inactive)
GI50 (SW-620): 38.2 µM (inactive)
GI50 (T47D): 34.1 µM (inactive)
GI50 (TK-10): 26.9 µM (inactive)
GI50 (U-251): 33.3 µM (inactive)
GI50 (UACC-257): > 100 µM (inactive)
GI50 (UACC-62): 46 µM (inactive)
GI50 (UO-31): > 57.7 µM (inactive)

CCOC(=O)C1C(=O)C(=O)N2CCc3c([nH]c4ccccc34)C12 (stereo unspecified)
GI50 (786-0): > 100 µM (inactive)
GI50 (A498): > 100 µM (inactive)
GI50 (A549): > 100 µM (inactive)
GI50 (CAKI-1): > 100 µM (inactive)
GI50 (CCRF-CEM): > 100 µM (inactive)
GI50 (COLO 205): > 100 µM (inactive)
GI50 (DLD-1): > 100 µM (inactive)
GI50 (DMS-114): > 100 µM (inactive)
GI50 (EKVX): > 100 µM (inactive)
GI50 (HCC 2998): > 100 µM (inactive)
GI50 (HCT-116): > 100 µM (inactive)
GI50 (HCT-15): > 100 µM
GI50 (HL-60): > 100 µM (inactive)
GI50 (HOP-62): > 100 µM (inactive)
GI50 (HOP-92): > 100 µM (inactive)
GI50 (HT-29): > 100 µM (inactive)
GI50 (IGROV-1): > 100 µM (inactive)
GI50 (K562): > 100 µM (inactive)
GI50 (KM-20L2): > 100 µM (inactive)
GI50 (KM12): > 100 µM (inactive)
GI50 (LXFL 529): > 100 µM (inactive)
GI50 (M14): > 100 µM (inactive)
GI50 (M19-MEL): > 100 µM (inactive)
GI50 (MOLT-4): > 100 µM (inactive)
GI50 (Malme-3M): > 100 µM (inactive)
GI50 (NCI-H23): > 100 µM (inactive)
GI50 (NCI-H522): > 100 µM (inactive)
GI50 (OVCAR-3): > 100 µM (inactive)
GI50 (OVCAR-4): > 100 µM (inactive)
GI50 (OVCAR-5): > 100 µM (inactive)
GI50 (OVCAR-8): > 100 µM (inactive)
GI50 (RPMI-8226): > 100 µM (inactive)
GI50 (RXF 393): > 100 µM (inactive)
GI50 (SF-268): > 100 µM (inactive)
GI50 (SF-295): > 100 µM (inactive)
GI50 (SF-539): > 100 µM (inactive)
GI50 (SK-MEL-28): > 100 µM (inactive)
GI50 (SK-MEL-2): > 100 µM (inactive)
GI50 (SK-MEL-5): > 100 µM (inactive)
GI50 (SK-OV-3): > 100 µM (inactive)
GI50 (SN12C): > 100 µM (inactive)
GI50 (SNB-19): > 100 µM (inactive)
GI50 (SR): > 100 µM (inactive)
GI50 (SW-620): > 100 µM (inactive)
GI50 (TK-10): > 100 µM (inactive)
GI50 (U-251): > 100 µM (inactive)
GI50 (UACC-62): > 100 µM (inactive)
GI50 (UO-31): > 100 µM (inactive)
